# Data as given in PMC6265740, “Biochemical and Anti-Triple Negative Metastatic Breast Tumor Cell Properties of Psammaplins” (Marine Drugs, 2018).
# Entries after “also recorded” stand apart in the source; their conditions may differ.
# Key:
# VEGF mRNA = assay: Quantitative real time RT-PCR of VEGF mRNA in T47D cells; format: cell-based, human; conditions: 16 h; for effect on the levels of VEGF mRNA: concentrations tested
# Excerpt: (§1) Around 100 genes have been identified as HIF-1 target genes that encode proteins involved in various aspects of cellular physiology. While most of these genes are regulated in a cell type-specific manner, some are induced upon HIF-1 activation in most cell types. Based on availability and potency, compound 4 (a stereoisomer of 2) was selected for follow-up studies. The effects of 4 on the expression of HIF-1 target genes cyclin dependent kinase inhibitor 1A (CDKN1A) and vascular endothelial growth factor A (VEGFA) were examined by quantitative real time RT-PCR (Figure 2). The HIF-1 activator 1,10-phen (10 μM) and the pan-HDAC inhibitor TSA (0.1 and 1 μM, respectively) were included as positive controls. In T47D cells, 4 and TSA each increased the levels of CDKN1A mRNA in a concentration-dependent manner (2.9-fold for 4 at 10 μM and 7.2-fold for TSA at 1 μM, Figure 2A). In contrast, neither 4 nor TSA exerted greater than 20% effect on the levels of VEGF mRNA (Figure 2B). […]
# (§2) Figure 2 Effects of 4 and trichostatin A (TSA) on HIF-1 target gene expression. […] The levels of cyclin dependent kinase inhibitor 1A (CDKN1A) (A) and vascular endothelial growth factor (VEGF) (B) mRNA following treatments were determined by quantitative real time RT-PCR. […] The levels of cellular (C) and secreted VEGF protein (D) were determined by ELISA and normalized to the amount of cellular proteins. […]
# (§3) The effects of test samples on HIF-1 target gene expression were assessed in T47D cells. To determine the levels of CDKN1A and VEGF mRNA, quantitative real-time RT-PCR was performed as described. To determine the levels of cellular and secreted VEGF proteins, T47D cells were exposed to compounds as described, the levels of VEGF proteins in the conditioned medium and cell lysate samples determined by ELISA [21], the amount of proteins in the cell lysate samples quantified using a micro BCA assay kit (Thermo Fisher Scientific, Rockford, IL, USA), and the level of VEGF proteins normalized to that of cellular proteins.
# VEGF protein = assay: ELISA of cellular and secreted VEGF proteins in T47D cells; format: cell-based, human; conditions: normalized to cellular proteins
# Excerpt: Around 100 genes have been identified as HIF-1 target genes that encode proteins involved in various aspects of cellular physiology. While most of these genes are regulated in a cell type-specific manner, some are induced upon HIF-1 activation in most cell types. Based on availability and potency, compound 4 (a stereoisomer of 2) was selected for follow-up studies. The effects of 4 on the expression of HIF-1 target genes cyclin dependent kinase inhibitor 1A (CDKN1A) and vascular endothelial growth factor A (VEGFA) were examined by quantitative real time RT-PCR (Figure 2). The HIF-1 activator 1,10-phen (10 μM) and the pan-HDAC inhibitor TSA (0.1 and 1 μM, respectively) were included as positive controls. In T47D cells, 4 and TSA each increased the levels of CDKN1A mRNA in a concentration-dependent manner (2.9-fold for 4 at 10 μM and 7.2-fold for TSA at 1 μM, Figure 2A). In contrast, neither 4 nor TSA exerted greater than 20% effect on the levels of VEGF mRNA (Figure 2B). The gene VEGF encodes vascular endothelial growth factor A (a potent angiogenic factor) and agents that inhibit VEGF are in clinical use for cancer. The expression of cellular and secreted VEGF proteins was examined in T47D cells by ELISA assay.
# Figure 2 Effects of 4 and trichostatin A (TSA) on HIF-1 target gene expression. T47D cells were exposed to 4 and TSA at the specified concentrations for 16 h. The compound 1,10-phen (10 µM) was included as a positive control. The levels of cyclin dependent kinase inhibitor 1A (CDKN1A) (A) and vascular endothelial growth factor (VEGF) (B) mRNA following treatments were determined by quantitative real time RT-PCR. Relative levels of target gene mRNA normalized to an internal control (18S rRNA) are shown as average ± standard deviation (n = 3, one representative experiment). The levels of cellular (C) and secreted VEGF protein (D) were determined by ELISA and normalized to the amount of cellular proteins. Data shown are average + standard deviation (n = 3). An asterisk “*” indicates p < 0.05 when compared to the media control.
# as §3
# BoM spheroids = assay: Cultrex 3D spheroid cell invasion assay; format: cell-based, human; conditions: for invasion of BoM spheroids into the extracellular matrix: 96 h (T96), 4 and TSA at 48 h proliferation IC50
# Description: In order to form metastatic lesions, metastasis-initiating tumor cells must invade and intravasate into the lymphatic vasculature and/or blood vessels. Psammaplins were evaluated in a Cultrex® 3-D cell invasion assay that monitors the invasion and migration of tumor cells grown as spheroids, which closely model in vivo pathophysiological conditions.
# Figure 5 Inhibition of bone metastatic BoM cell invasion. Tumor cell spheroids formed in a special spheroid formation extracellular matrix (ECM) were embedded in an invasion matrix containing 10% fetal bovine serum (FBS) in the presence and absence of compounds at the specified concentrations. Four days later (T96), cell invasion was recorded microscopically (the bar at the bottom right represents 100 µm).
# The 3D spheroid cell invasion assay was performed using a commercial kit, following the manufacturer’s instructions (Cultrex® 3D Spheroid Cell Invasion Assay, Trevigen, Gaithersburg, MD, USA). Briefly, exponentially grown MDA-MB-231, LM, BoM, and BrM cells were trypsinized, collected, and resuspended in serum-free DMEM/F12 media. For spheroid formation, 3000 cells were added in a volume of 50 µL serum-free DMEM/F12 media with 1× spheroid formation solution/well into a pre-cooled 96-well plate. The plate was centrifuged at 100× g for 5 min at 4 °C, incubated at 37 °C for 24 h, and the spheroids imaged using an Axiovert 40 CFL microscope (Zeiss, Oberkochen, Germany). The plate was placed on ice, the invasion mix added in a volume of 50 µL/well, centrifuged at 350× g for 5 min at 4 °C, and incubated at 37 °C for 1 h. Test compounds and controls were diluted to two times the final concentrations in DMEM/F12 media supplemented with FBS (10%) and antibiotics, and added in a volume of 100 µL/well. The incubation continued for another 4 days at 37 °C and the cells/spheroids imaged (T96).
# HDAC = assay: MDA-MB-435 cell-based HDAC assay (HDAC-Glo); conditions: MDA-MB-435 cells, 30 min incubation, n = 6 pooled from two experiments
# Description: Test compounds were added at specified concentrations to exponentially grown cells plated in 96-well plates. After 30 min incubation, the HDAC activity was determined using a commercial kit (HDAC-Glo™, Promega, Madison, WI, USA) and normalized to that of the dimethyl sulfoxide (DMSO) solvent control.
# Exponentially grown cells were seeded at the density of 5000 cells/well into 96-well plates (Corning, Corning, NY, USA) and incubated overnight. Compounds dissolved in DMSO were added to achieve the specified final concentrations (total volume: 100 μL, DMSO: 0.5%). The incubation continued for 30 min at 37 °C and the HDAC activity determined using a commercial luminescent assay (HDAC-Glo™, Promega, Madison, WI, USA).
# HIF-1 = assay: T47D cell-based reporter assay (pHRE-luc) for HIF-1 activity; parameters: species or system human; conditions: for normalized ratio of pHRE-luc/pGL3-control: T47D
# Description: Cellular adaptation to hypoxia (low oxygen tension) is primarily mediated via the transcription factor hypoxia-inducible factor-1 (HIF-1), that regulates oxygen homeostasis by activating the expression of genes that increase oxygen availability and those that decrease oxygen consumption. […] In a T47D cell-based reporter assay, a lipid extract sample of the sponge Dendrilla lacunosa activated HIF-1 by 3.56-fold (NIH collection No. C025691, 10 μg mL^−1). Bioassay-guided fractionation of the extract sample (2.6 g) and chemical structure elucidation afforded five known compounds psammaplin E (1), (E,Z)-psammaplin A (2), (E,E)-psammaplin K (3), (E,E)-psammaplin A (4), and bisaprasin (5). To determine the effects of 1–5 on HIF-1 activity, concentration-response studies were performed in a T47D cell-based reporter assay (Figure 1B). An iron chelator (1,10-phenanthroline, 10 μM) was included as a positive control. Compounds 1–4 activated HIF-1 in a biphasic manner. […] Hypoxia (1% O2) and chemical hypoxia (iron chelators or transition metals) represent two common stimuli that activate HIF-1 [24, 25, 26]. Further studies were performed to determine the effects of 1–5 on HIF-1 activity in the presence of other stimuli (1,10-phenanthroline, Figure 1C; hypoxia, Figure 1D). While 1–4 acted synergistically with 1,10-phenanthroline and hypoxia to activate HIF-1, a biphasic pattern of activation similar to that in the absence of stimulus […] was observed. […] Previous studies reported that psammaplins inhibit histone deacetylase (HDAC) enzymes. To determine if HDAC inhibition non-specifically activates HIF-1, concentration-response studies were conducted in T47D cells transfected with the pGL3-control plasmid. […] One possible scenario is that these compounds incur significant amount of cellular stress at higher concentrations, leading to the inhibition of gene expression in general.
# Figure 1 Concentration-dependent biphasic effects of 1–4 on HIF-1 activation. (A) Structures of psammaplins isolated from Dendrilla lacunosa. (B) Concentration-response results of 1–5 in T47D cells transfected with pHRE-luc for HIF-1 activity. Test compounds were added at the increasing concentrations of 0.1, 0.3, 1, 3, 10, and 30 µM, as specified. The positive control 1,10-phenanthroline (1,10-phen) was used at 10 µM. Data shown are average ± standard deviation (n = 3). (C) Similar to described in (B) except that the pHRE-luc transfected T47D cells were exposed to test compounds in the presence of 10 µM 1,10-phen, and the data were normalized to the positive control (1,10-phen). (D) Similar to described in (C) except that hypoxic exposure (1% O2: 5% CO2: 94% N2, 16 h) was applied in place of 1,10-phen. (E) As described in (B) except that T47D cells were transfected with the pGL3-control construct. An asterisk “*” indicates p < 0.05 when compared to the controls (“Media” for B, D, and E; and “1,10-phen” for C).
# To monitor HIF-1 activity, T47D cells were transfected with the pHRE3-TK-Luc construct and the cell-based luciferase reporter assay was performed as described. Cells were exposed to test compounds in the absence and presence of 1,10-phenanthroline (10 μM) or hypoxic conditions (1% O2: 5% CO2: 94% N2) for 16 h. The cells were lysed and luciferase activity determined with a commercial kit (Promega, Madison, WI, USA). For the cell-based control reporter assay, T47D cells were transfected with the pGL3-control construct (Promega, Madison, WI, USA), exposed to test compounds for 16 h, and the luciferase reporter assay performed as described.
# CDKN1A mRNA = assay: Quantitative real time RT-PCR of CDKN1A mRNA in T47D cells; format: cell-based, human; conditions: 16 h
# Excerpt: as §1, with “controls.” for “controls. In T47D cells, 4 and TSA each increased the levels of CDKN1A mRNA in a concentration-dependent manner (2.9-fold for 4 at 10 μM and 7.2-fold for TSA at 1 μM, Figure 2A). In contrast, neither 4 nor TSA exerted greater than 20% effect on the levels of VEGF mRNA (Figure 2B).”
# as §2
# The effects of test samples on HIF-1 target gene expression were assessed in T47D cells. To determine the levels of CDKN1A and VEGF mRNA, quantitative real-time RT-PCR was performed as described. […]
# [1] = T47D pHRE-luc, 10 μM, 16 h, no stimulus, n = 3
# [2] = T47D pHRE-luc, 3 μM, 16 h, no stimulus, n = 3
smiles,measurement,setting,value
"c1cnc2c(c1)ccc1cccnc12 [1,10-phen, 1,10-phenanthroline]","VEGF expression, mRNA",VEGF mRNA; 10 μM,induced VEGF expression
same,"VEGF expression, cellular protein",VEGF protein,induced VEGF expression
same,"VEGF expression, secreted protein",VEGF protein,induced VEGF expression
"C[C@@H]1C[C@@H]([C@H](O)CC2CC(=O)NC(=O)C2)C(=O)[C@@H](C)C1 [CHX, cycloheximide]",size of the spheroids,"BoM spheroids; 96 h, in comparison to the HDAC inhibitors",more pronounced decrease in the size of the spheroids
"NC(=O)C(=O)NCCSSCCNC(=O)/C(Cc1ccc(O)c(Br)c1)=N/O [Compound 1, psammaplin E]",IC50,HDAC,257 nM
same,HIF-1 activation (highest level),HIF-1; [1],12.01 ± 1.12 fold
same,normalized ratio of pHRE-luc/pGL3-control,HIF-1; 10 μM,2.64 fold
"O=C(NCCSSCCNC(=O)C(Cc1ccc(O)c(Br)c1)=NO)C(Cc1ccc(O)c(Br)c1)=NO [Compound 2, (E,Z)-psammaplin A]",IC50,HDAC,19 nM
same,HIF-1 activation (highest level),HIF-1; [2],12.32 ± 0.70 fold
same,normalized ratio of pHRE-luc/pGL3-control,HIF-1; 3 μM,2.38 fold
"O=C(NCCSSCCNC(=O)/C(Cc1cc(O)c(O)c(Br)c1)=N/O)/C(Cc1ccc(O)c(Br)c1)=N/O [Compound 3, (E,E)-psammaplin K]",IC50,HDAC,38 nM
same,HIF-1 activation (highest level),HIF-1; [1],10.15 ± 0.66 fold
same,normalized ratio of pHRE-luc/pGL3-control,HIF-1; 10 μM,2.38 fold
"O=C(NCCSSCCNC(=O)/C(Cc1ccc(O)c(Br)c1)=N/O)/C(Cc1ccc(O)c(Br)c1)=N/O [Compound 4, (E,E)-psammaplin A]",invasion of BoM spheroids into the extracellular matrix,BoM spheroids,inhibited the invasion of BoM spheroids; also recorded: inhibited this invasion
same,IC50,HDAC,37 nM
same,effect on the levels of VEGF mRNA,VEGF mRNA,≤ 20%
same,HIF-1 activation (highest level),HIF-1; [2],11.01 ± 0.71 fold
same,normalized ratio of pHRE-luc/pGL3-control,HIF-1; 3 μM,2.30 fold
same,increase in CDKN1A mRNA level,CDKN1A mRNA; 10 μM,2.9 fold
same,"VEGF expression, cellular protein",VEGF protein,None of the HDAC inhibitors examined (4 and TSA) increased VEGF protein levels
same,"VEGF expression, secreted protein",VEGF protein,None of the HDAC inhibitors examined (4 and TSA) increased VEGF protein levels
"O=C(NCCSSCCNC(=O)/C(Cc1cc(Br)c(O)c(-c2cc(C/C(=N\O)C(=O)NCCSSCCNC(=O)/C(Cc3ccc(O)c(Br)c3)=N/O)cc(Br)c2O)c1)=N/O)/C(Cc1ccc(O)c(Br)c1)=N/O [Compound 5, bisaprasin]",IC50,HDAC,948 nM
same,HIF-1 activation,"HIF-1; T47D pHRE-luc, 30 μM, 16 h, no stimulus, n = 3",2.17 ± 0.13 fold
same,effect on HIF-1 activity in the presence of other stimuli,"HIF-1; T47D pHRE-luc, with 1,10-phenanthroline (10 µM) or hypoxia (1% O2), 16 h",inhibited HIF-1 activation at higher concentrations
"CC(/C=C/C(=O)NO)=C\[C@@H](C)C(=O)c1ccc(N(C)C)cc1 [TSA, trichostatin A]",invasion of BoM spheroids into the extracellular matrix,BoM spheroids,inhibited the invasion of BoM spheroids
same,effect on the levels of VEGF mRNA,VEGF mRNA,≤ 20%
same,increase in CDKN1A mRNA level,CDKN1A mRNA; 1 μM,7.2 fold
same,"VEGF expression, cellular protein",VEGF protein,None of the HDAC inhibitors examined (4 and TSA) increased VEGF protein levels
same,"VEGF expression, secreted protein",VEGF protein,None of the HDAC inhibitors examined (4 and TSA) increased VEGF protein levels
